The values below come from PubChem BioAssay AID2060509 (Molecular Pharmacology Branch, DTP, NCI, 2025).

The subject of the assay is 485176-168-R4-J1-PDC spheroids with HUVEC/MSC, viability. Kind of assay: Anticancer human tumor 485176-168-R4-J1-PDC patient-derived pancreatic adenocarcinoma cell line growth inhibition [GQUAD]. Particulars: for viability, T/C: stronger effect = lower value. The text has this: DNA G-quadruplex Stabilizer Agents in Combinations in Complex Spheroids
A high-throughput screen of multi-cell type tumor spheroids was designed to identify active combinations of DNA G-quadruplex stabilizer agents and targeted small molecules. Complex spheroids include a stromal component modeled by human endothelial cells (HUVEC) and fibroblasts modeled by human mesenchymal stem cells (MSCs). The concentration ranges selected for each drug and investigational agent were based upon clinically achievable concentrations if the clinical Cmax of the agent was known.
Compounds. The drugs and investigational agents: pidnarulex (CX-5461; NSC782164), APTO-253 (NSC789042), BRACO-19 (NSC847499), peposertib (NSC802822), ceralasertib (NSC780249), elimusertib (NSC800525), camonsertib (NSC841442), AZD-1390 (NSC803789), olaparib (NSC753686), talazoparib (NSC767125), ART-558 (NSC835418), sotorasib (NSC818433), MRTX-1133 (NSC836407), SN-38 (NSC673596), topotecan (NSC609699), etoposide (NSC141540), doxorubicin (NSC123127), gemcitabine (NSC613327), 5-fluorouracil (NSC19893), paclitaxel (NSC125973), vemurafenib (NSC761431), panobinostat (NSC761190), R-306465 (JNJ-16241199; NSC773264), adavosertib (NSC754352), TP-3654 (NSC805149), carboplatin (NSC241240), KSQ-4279 (NSC840948), and staurosporine (NSC755774) were obtained from the National Cancer Institute (NCI) Developmental Therapeutics Program Chemical Repository (34). The FDA-approved anticancer drug set is available from the NCI Developmental Therapeutics Program. […] The stock solutions were prepared in dimethyl sulfoxide (DMSO, Sigma-Aldrich, St. Louis, MO, cat. D2650) at 800-fold the tested concentration and stored at -70 degrees C prior to their use. All drugs and investigational agents were tested over a range starting from a high concentration at or near the clinical Cmax and decreasing in half-log increments. If the clinical Cmax for an agent had not been determined, the highest concentration tested was 10 microM.
2.3 Cell Culture. All cells were maintained in an incubator at 37 degrees C and 5% CO2 with 95% humidity. The PDC lines were cultured according to standard operating procedures established by the NCI PDMR. All PDCs were thawed and cultured in Matrigel-coated flasks prepared with a working solution of 1X Ham's F-12 nutrient mix, without supplementation (Invitrogen, cat. 11765054), 100 U/mL penicillin-streptomycin (Invitrogen, cat. 15140122), and 2.5% Matrigel (Corning Inc., cat. 354248) for the first three passages. The 857933-349-R-J2-PDC line was cultured in 6C/Colon 1B media, which includes advanced DMEM/F-12 (Thermo Fisher Scientific, cat. 12634028), 10 mM HEPES (Thermo Fisher Scientific, cat. 15630080), 1X GlutaMAX supplement (Thermo Fisher Scientific, cat. 35050061), 0.1 mg/mL primocin (InvivoGen, cat. ant-pm-2), 10% defined fetal bovine serum, heat inactivated (HyClone Laboratories Inc., cat. SH30070.03HI), 50% L-WRN conditioned media (ATCC, cat. CRL-3276), 1.25 mM N-Acetyl-L-cysteine (Sigma-Aldrich, cat. A9165), 10 mM nicotinamide (Sigma-Aldrich, cat. N0636), 1X B-27 supplement (Thermo Fisher Scientific, cat. 17504044), 1X N-2 supplement (Thermo Fisher Scientific, cat. 17502048), 10 microM Y-27632 dihydrochloride (Tocris Bioscience, cat. 1254), and 50 ng/mL human EGF recombinant protein (Thermo Fisher Scientific, cat. PHG0311). The 485176-168-R4-J1-PDC line was cultured in Panc media, which includes all 6C/Colon 1B media components plus 100 ng/mL human FGF-10 (Thermo Fisher Scientific, cat. 100-26), 500 nM SB-431542 (Selleckchem, cat. S1067), and gastrin (Tocris, cat. 3006).
[…]

Several values for one entry are separate records, joined by “and”; a condition that tells them apart may be missing. Equal entries are not always repeated. A value given as a limit tells only on which side of the number the result lay.
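Further: spheroids exposed to compounds for seven days before readout.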
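Wherever viability, T/C is given: percent viability relative to DMSO vehicle control wells as 100%.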

Take `CC(=O)O[C@H]1C(=O)[C@@]2(C)[C@H]([C@H](OC(=O)c3ccccc3)[C@]3(O)C[C@H](OC(=O)[C@H](O)[C@@H](NC(=O)c4ccccc4)c4ccccc4)C(C)=C1C3(C)C)[C@]1(OC(C)=O)CO[C@@H]1C[C@@H]2O`: the viability, T/C by setting is: (compound 0.0316 µM) 33.5% and 33.7% and 29.3%; (compound 0.1 µM) 10.2% and 14.9% and 9.73%; (compound 0.316 µM) 12.3% and 11.3% and 10.6%; (compound 1 µM) 10.9% and 13.4% and 9.36%; (compound 3.16 µM) 11% and 13.5% and 10.1%; (compound 10 µM) 13.7% and 11.4% and 9.37%. For the same compound, for the setting “curve of compound”, the IC50 is less than 31.6 nM.

Regarding `CC(C)(O)C1CCC(Nc2ccc3ncc(-c4cccc(C(F)(F)F)c4)n3n2)CC1` (stereo not given), the viability, T/C is 95.2% and 95.5% and 94.6% (compound 0.0316 µM); 110% and 90.6% and 87.2% (compound 0.1 µM); 83.9% and 93.9% and 92.1% (compound 0.316 µM); 84.3% and 91.6% and 77.9% (compound 1 µM); 53.8% and 62.9% and 60.7% (compound 3.16 µM); 57.8% and 57.9% and 56.4% (compound 10 µM). Besides, for the setting “curve of compound”, the IC50 was more than 10000 nM.

Take `Cn1ncnc1[C@H]1c2n[nH]c(=O)c3cc(F)cc(c23)N[C@@H]1c1ccc(F)cc1`: the viability, T/C (compound 0.000999 µM) is 99.2% (2×) and 86.5%; the viability, T/C (compound 0.00316 µM) is 95.2% and 94% and 85.8%; the viability, T/C (compound 0.00999 µM) is 96.4% and 108% and 91.5%; the viability, T/C (compound 0.0316 µM) is 98.8% and 101% and 88.8%; the viability, T/C (compound 0.0999 µM) was 91.2% and 91.7% and 89.7%; the viability, T/C (compound 0.316 µM) was 75.9% and 98.5% and 85.9%. The half-maximal inhibitory concentration (IC50) (curve of compound) is more than 316 nM.

For the compound `O=c1[nH]cc(F)c(=O)[nH]1`, the viability, T/C by setting is: (compound 0.0316 µM) 95.9% and 97.3% and 84.9%; (compound 0.1 µM) 85.5% and 91% and 89.7%; (compound 0.316 µM) 79.7% and 75.4% and 64%; (compound 1 µM) 56.6% and 60.5% and 59.2%; (compound 3.16 µM) 48.2% and 46.2% and 45.4%; (compound 10 µM) 46.8% and 46.7% and 54.9%. The IC50 (curve of compound) was 2610 nM and 2750 nM and > 10000 nM.

Regarding `COc1ccc([C@@H](O)c2cc(-c3ncnc4cc(N5CCOCC5)ccc34)c(F)cc2Cl)nn1`, the viability, T/C is, setting by setting: (compound 0.0316 µM) 89.1% and 113% and 89.2%; (compound 0.1 µM) 75.3% and 88.3% and 77.7%; (compound 0.316 µM) 87.5% and 97.3% and 96%; (compound 1 µM) 73.4% and 71.1% and 64.4%; (compound 3.16 µM) 46.6% and 64.8% and 57.1%; (compound 10 µM) 31.4% and 30% and 28.4%. The IC50 (curve of compound) was 2720 nM and 4600 nM and 3810 nM.

Consider `CC1COCCN1c1cc(C2(S(C)(=N)=O)CC2)nc(-c2ccnc3[nH]ccc23)n1` (stereo not given), for which the viability, T/C by setting is: (compound 0.0316 µM) 91.4% and 102% and 101%; (compound 0.1 µM) 98.7% and 102% and 97.1%; (compound 0.316 µM) 93.1% and 96.5% and 101%; (compound 1 µM) 56% and 70.9% and 59.4%; (compound 3.16 µM) 36.2% and 34.4% and 72.4%; (compound 10 µM) 14.5% and 16.4% and 12.8%. Moreover, the IC50 (curve of compound) was 1550 nM and 1930 nM and 3980 nM.

`C#Cc1c(F)ccc2cc(O)cc(-c3ncc4c(N5CC6CCC(C5)N6)nc(OCC56CCCN5CC(F)C6)nc4c3F)c12` (stereo not given): the viability, T/C is 95.2% and 109% and 105% (compound 0.0316 µM); 89% and 86.3% and 108% (compound 0.1 µM); 92.7% and 88.4% and 95.7% (compound 0.316 µM); 89.8% and 104% and 109% (compound 1 µM); 104% and 96.4% and 97.2% (compound 3.16 µM); 95.4% and 93.5% and 104% (compound 10 µM). Further, where the note is “curve of compound”, the IC50 was more than 10000 nM.

In the case of `CC[C@@]1(O)C(=O)OCc2c1cc1n(c2=O)Cc2cc3c(CN(C)C)c(O)ccc3nc2-1`, the viability, T/C was 103% and 99% and 108% (compound 0.000999 µM); 99.1% and 96.4% and 81% (compound 0.00316 µM); 89.2% and 94.7% and 93% (compound 0.00999 µM); 64.6% and 100% and 90.4% (compound 0.0316 µM); 54.2% and 66.9% and 58.7% (compound 0.0999 µM); 31.3% and 35.5% (2×) (compound 0.316 µM). Also, the IC50 (curve of compound) was 102 nM and 185 nM and 154 nM.

In the case of `CN(C)c1ccc(Nc2c3ccc(NC(=O)CCN4CCCC4)cc3nc3cc(NC(=O)CCN4CCCC4)ccc23)cc1`, the viability, T/C by setting is: (compound 0.0316 µM) 101% [middle of 12 runs]; (compound 0.316 µM) 102% [middle of 12 runs]; (compound 3.16 µM) 93.2% [middle of 12 runs]; (compound 10 µM) 84.2% [middle of 12 runs]. In addition, the IC50 (compound alone, run of 03/26/2024) was more than 10000 nM.

For the compound `CC1COCCN1c1cc(-c2ccnn2C)c2ccnc(-c3ccn[nH]3)c2n1` (stereo not given) + CN(C)c1ccc(Nc2c3ccc(NC(=O)CCN4CCCC4)cc3nc3cc(NC(=O)CCN4CCCC4)ccc23)cc1, the IC50 runs as follows: (curve of first compound, second compound 0.0316 µM) 92.9 nM; (curve of first compound, second compound 0.1 µM) 117 nM; (curve of first compound, second compound 0.316 µM) 111 nM; (curve of first compound, second compound 1 µM) 89.8 nM; (curve of first compound, second compound 3.16 µM) 70.2 nM; (curve of first compound, second compound 10 µM) 58 nM. The viability, T/C runs as follows: (second compound 0.0316 µM, first compound 0.0316 µM) 83.6%; (second compound 0.0316 µM, first compound 0.1 µM) 47.7%; (second compound 0.0316 µM, first compound 0.316 µM) 17%; (second compound 0.0316 µM, first compound 1 µM) 11.2%; (second compound 0.0316 µM, first compound 3.16 µM) 10.4%; (second compound 0.0316 µM, first compound 10 µM) 11.1%. Besides, the viability, T/C (second compound 0.1 µM, first compound 0.0316 µM) was 84.2%; the viability, T/C (second compound 0.1 µM, first compound 0.1 µM) was 54.9%; the viability, T/C (second compound 0.1 µM, first compound 0.316 µM) is 18.7%; the viability, T/C (second compound 0.1 µM, first compound 1 µM) was 11.8%; the viability, T/C (second compound 0.1 µM, first compound 3.16 µM) is 10.7%; the viability, T/C (second compound 0.1 µM, first compound 10 µM) is 8.57%. Moreover, the viability, T/C was 81.2% (second compound 0.316 µM, first compound 0.0316 µM); 52.9% (second compound 0.316 µM, first compound 0.1 µM); 20.2% (second compound 0.316 µM, first compound 0.316 µM); 10.3% (second compound 0.316 µM, first compound 1 µM); 9.46% (second compound 0.316 µM, first compound 3.16 µM); 10.1% (second compound 0.316 µM, first compound 10 µM). Further, the viability, T/C (second compound 1 µM, first compound 0.0316 µM) was 87.5%; the viability, T/C (second compound 1 µM, first compound 0.1 µM) was 45.9%; the viability, T/C (second compound 1 µM, first compound 0.316 µM) was 23.8%; the viability, T/C (second compound 1 µM, first compound 1 µM) was 12.3%; the viability, T/C (second compound 1 µM, first compound 3.16 µM) is 11.4%; the viability, T/C (second compound 1 µM, first compound 10 µM) is 9.79%. Besides, the viability, T/C (second compound 3.16 µM, first compound 0.0316 µM) was 64.7%; the viability, T/C (second compound 3.16 µM, first compound 0.1 µM) is 43.5%; the viability, T/C (second compound 3.16 µM, first compound 0.316 µM) is 17.4%; the viability, T/C (second compound 3.16 µM, first compound 1 µM) is 12.6%; the viability, T/C (second compound 3.16 µM, first compound 3.16 µM) is 10.6%; the viability, T/C (second compound 3.16 µM, first compound 10 µM) was 11.3%. Besides, the viability, T/C is 61.1% (second compound 10 µM, first compound 0.0316 µM); 39.8% (second compound 10 µM, first compound 0.1 µM); 23.9% (second compound 10 µM, first compound 0.316 µM); 13.3% (second compound 10 µM, first compound 1 µM); 11.4% (second compound 10 µM, first compound 3.16 µM); 9.08% (second compound 10 µM, first compound 10 µM).

With `CCc1c2c(nc3ccc(O)cc13)-c1cc3c(c(=O)n1C2)COC(=O)[C@]3(O)CC`, the viability, T/C was 70.1% and 80.1% and 81.3% (compound 0.000999 µM); 44.8% and 56.4% and 56% (compound 0.00316 µM); 36% and 50.5% and 37.6% (compound 0.00999 µM); 25.5% and 22.1% and 19.9% (compound 0.0316 µM); 14.2% and 11.4% and 13.2% (compound 0.0999 µM); 5.64% and 4.31% and 3.94% (compound 0.316 µM). For the same compound, the IC50 (curve of compound) was 3.08 nM and 6.61 nM and 4.61 nM.

For orientation: viability, T/C means the ratio of treated to control. As usually defined, the IC50 is the concentration that gives 50% inhibition.
